According to patent publication US20240052005A1, “IMPROVED CELL-PENETRATING PEPTIDES AND FUSION PROTEINS” (ANASTASIS BIOTEC LIMITED, priority 2020, published 2024):
Entries after “also recorded” stand apart in the source; their conditions may differ.

Legend:
Human cell-line SKOV3 = test: Cell transduction visualised with FITC-conjugated anti-HIS antibody; format: cell-based; settings: 0.01 mg/mL, 1 hour at 37° C.
Description: Human cell-line SKOV3 was cultured in DMEM media with 10% serum at 37° C., 5% CO2 until 40% confluency in a 96-well culture dish. The media was removed and replaced with 0.1 mL tissue culture-grade PBS and unmodified ANTP, unmodified MAML and ANTP-PEG-2-MAML were added to a final concentration of 0.01 mg/mL. Cell transduction was allowed to proceed for 1 hour at 37° C. Next, the PBS was removed and replaced with DMEM/serum and the cells were grown overnight as above. The transduced cells were then fixed using 1% glutaraldehyde at room temperature for 1 hr and permeabilized using Saponin at 1% concentration for 20 minutes at room temperature. Cells were then washed with PBS and visualized using FITC-conjugated-anti-HIS antibody (Miltenyi Biotech). Imaging was done using a GE-Incell-500 analyser visualizing the green fluorescence of the FITC at around 525 nm. […] This confirms the functionality of the ANTP-PEG-2-MAML protein.

SKOV-3 tumour cells = test: Intranuclear trafficking into cancer cells, scored by immunofluorescence; format: cell-based, human; settings: free protein alone
Description: FIG. 2 Intranuclear trafficking of ANTP and ANTP-p21 conjugates into the nuclei of SKOV-3 tumour cells.
Cells, into which the protein had penetrated intranuclearly, were scored positive by immunofluorescence.

ANTP: Antennapedia cell-penetrating peptide, 60 amino acid sequence, recombinant
MAML-His protein seen inside the cell cytosol and cell nucleus (Human cell-line SKOV3): not

p21: free tumour-suppressor protein p21
cellular uptake / translocation to the nuclei (SKOV-3 tumour cells): No cellular uptake; also recorded: did not translocate to the nuclei

B1: MAML: unmodified recombinant MAML protein bearing a HIS-Tag (protein)
chain: LPRHSAVMERLRRRIELCRRHHSTCEARYEAVSPERLELERQHTFALHQRCIQAKAKRAGKH
modifications: also: His-tag, place not given here
MAML-His protein seen inside the cell cytosol and cell nucleus (Human cell-line SKOV3): not
